According to publication PMC4948833, “A Sensitive and Robust High-Throughput Screening Assay for Inhibitors of the Chikungunya Virus nsP1 Capping Enzyme” (PLoS ONE, 2016):

What was measured:
[1] = test system: CHIKV nsP1 guanylation activity; experiment: Guanylation assay, covalent nsP1-GTP-680 formation, SDS-PAGE fluorescence; settings: for ability to inhibit nsP1 guanylation (in words): 100 μM of each GTP analog, Fig 4; for ability to inhibit nsP1 guanylation (in words) / effect on nsP1 guanylation activity (in words): 1 hour; for Average POC: mean of replicates; for Average POC / Percent of Control: 100 μM analog, Fig 4 data; for Percent of Control: single replicates, scaled guanylation; for effect on nsP1 guanylation activity (in words): 100 μM GTP, 100 μM SAM or both, Fig 2; for % of control, mean of replicates: mean of n = 3, 100 uM, given as fraction, Fig 2 data
[2] = test system: CHIKV nsP1 GTP binding site; experiment: FP competition assay, displacement of GTP-Bodipy by GTP and RNA cap analogs (apparent Ki / EC50); settings: for affinity for nsP1 GTP binding site / ability to compete with GTP-Bodipy (in words): FP competition, compared with GTP; for Ki: read-out: Average Ki, apparent Ki, 500 nM nsP1, 10 nM GTP-Bodipy, 1 hour 25°C
CHIKV nsP1 = experiment: HTS validation potency repeatability, EC50 of GTP analogs in two independent FP runs

Nc1nc2c(ncn2[C@H]2CC[C@@H](COP(=O)(O)OP(=O)(O)OP(=O)(O)O)O2)c(=O)[nH]1 [ddGTP]
ability to inhibit nsP1 guanylation (in words) [1]: greatest ability to in inhibit nsP1 guanylation activity | Average POC [1]: 32.7576 | Percent of Control ([1]; 100 µM): 32.7691 | Percent of Control ([1]; listed as ddGTP2, 100 µM): 30.4919 | Percent of Control ([1]; listed as ddGTP3, 100 µM): 35.0118 | affinity for nsP1 GTP binding site / ability to compete with GTP-Bodipy (in words) [2]: binding slightly better than the others | Ki [2]: 0.425 µM

Cn1c[n+]([C@@H]2O[C@H](COP(=O)([O-])OP(=O)(O)OP(=O)(O)O)[C@@H](O)[C@H]2O)c2nc(N)[nH]c(=O)c21 [me^7-GTP]
Average POC [1]: 37.4013 | Percent of Control ([1]; listed as m7-GTP2, 100 µM): 37.3024 | Percent of Control ([1]; listed as m7-GTP, 100 µM): 37.5003 | affinity for nsP1 GTP binding site / ability to compete with GTP-Bodipy (in words) [2]: able to compete for the GTP binding site | Ki [2]: 1.55 µM

C[n+]1cn([C@@H]2O[C@H](COP(=O)([O-])OP(=O)(O)OP(=O)(O)OC[C@H]3O[C@@H](n4cnc5c(N)ncnc54)[C@H](O)[C@@H]3O)[C@@H](O)[C@H]2O)c2nc(N)[nH]c(=O)c21 [me^7-GpppA]
Geometric Mean Potency (CHIKV nsP1; first set of rows): 4.163 | Geometric Mean Potency (CHIKV nsP1; second set of rows): 4.105 | Average POC [1]: 75.4802 | Percent of Control ([1]; listed as m7-GpppA2, 100 µM): 75.9437 | Percent of Control ([1]; listed as m7-GpppA3, 100 µM): 80.9779 | Percent of Control ([1]; listed as m7-GpppA, 100 µM): 69.519 | Ki [2]: 7 µM

Nc1ccn([C@@H]2O[C@H](COP(=O)(O)OP(=O)(O)OP(=O)(O)O)[C@@H](O)[C@H]2O)c(=O)n1 [CTP]
Geometric Mean Potency (CHIKV nsP1; first set of rows): 4.146 | Geometric Mean Potency (CHIKV nsP1; second set of rows): 4.036 | Average POC [1]: 49.6579 | Percent of Control ([1]; 100 µM): 48.7482 | Percent of Control ([1]; listed as CTP2, 100 µM): 53.2419 | Percent of Control ([1]; listed as CTP3, 100 µM): 46.9836 | affinity for nsP1 GTP binding site / ability to compete with GTP-Bodipy (in words) [2]: markedly decreased ability to outcompete GTP-Bodipy | Ki [2]: 6.94 µM

Nc1nc2c(ncn2[C@@H]2O[C@H](COP(=O)(O)OP(=O)(O)OP(=O)(O)OC[C@H]3O[C@@H](n4cnc5c(N)ncnc54)[C@H](O)[C@@H]3O)[C@@H](O)[C@H]2O)c(=O)[nH]1 [GpppA]
Geometric Mean Potency (CHIKV nsP1; first set of rows): 4.749 | Geometric Mean Potency (CHIKV nsP1; second set of rows): 4.683 | Average POC [1]: 66.8805 | Percent of Control ([1]; 100 µM): 57.9814 | Percent of Control ([1]; listed as GpppA2, 100 µM): 71.1847 | Percent of Control ([1]; listed as GpppA3, 100 µM): 71.4754 | affinity for nsP1 GTP binding site / ability to compete with GTP-Bodipy (in words) [2]: better competitor than me^7GpppA | Ki [2]: 1.89 µM

Nc1ncnc2c1ncn2[C@@H]1O[C@H](COP(=O)(O)OP(=O)(O)OP(=O)(O)O)[C@@H](O)[C@H]1O [ATP]
Geometric Mean Potency (CHIKV nsP1; first set of rows): 4.371 | Geometric Mean Potency (CHIKV nsP1; second set of rows): 4.429 | Average POC [1]: 73.0319 | Percent of Control ([1]; 100 µM): 67.4851 | Percent of Control ([1]; listed as ATP2, 100 µM): 83.2927 | Percent of Control ([1]; listed as ATP3, 100 µM): 68.3179 | affinity for nsP1 GTP binding site / ability to compete with GTP-Bodipy (in words) [2]: six fold affinity reduction | Ki [2]: 3.34 µM

Cn1c[n+]([C@@H]2O[C@H](COP(=O)(O)O)[C@@H](O)[C@H]2O)c2nc(N)[nH]c(=O)c21 [me^7-GMP]
ability to inhibit nsP1 guanylation (in words) [1]: least ability to inhibit guanylation | Average POC [1]: 102.357 | Percent of Control ([1]; listed as m7-GMP2, 100 µM): 87.9178 | Percent of Control ([1]; listed as m7-GMP3, 100 µM): 97.473 | Percent of Control ([1]; listed as m7-GMP, 100 µM): 121.679 | affinity for nsP1 GTP binding site / ability to compete with GTP-Bodipy (in words) [2]: very poor competitor | Ki [2]: 21.9 µM

Nc1nc2c(ncn2[C@@H]2O[C@H](COP(=O)(O)OP(=O)(O)OP(=O)(O)O)[C@@H](O)[C@H]2O)c(=O)[nH]1 [GTP]
Geometric Mean Potency (CHIKV nsP1; first set of rows): 5.173 | Geometric Mean Potency (CHIKV nsP1; second set of rows): 5.17 | effect on nsP1 guanylation activity (in words) [1]: significantly diminished guanylation activity | ability to inhibit nsP1 guanylation (in words) [1]: greatest ability to in inhibit nsP1 guanylation activity | % of control, mean of replicates [1]: 0.417 | Average POC [1]: 44.8021 | Percent of Control ([1]; 100 µM): 42.0576 | Percent of Control ([1]; listed as GTP2, 100 µM): 51.0432 | Percent of Control ([1]; listed as GTP3, 100 µM): 41.3055 | Ki [2]: 0.546 µM | EC50 ([2]; read-out: EC50 concentration of GTP, FP displacement of GTP-Bodipy, used for midpoint signal wells): 6.8 µM

C[S+](CC[C@H](N)C(=O)[O-])C[C@H]1O[C@@H](n2cnc3c(N)ncnc32)[C@H](O)[C@@H]1O (stereo partly drawn) [SAM, S-adenosyl methionine]
effect on nsP1 guanylation activity (in words) [1]: guanylation activity was maintained | % of control, mean of replicates [1]: 0.9908

O=c1[nH]cnc2c1ncn2[C@@H]1O[C@H](COP(=O)(O)OP(=O)(O)OP(=O)(O)O)[C@@H](O)[C@H]1O [ITP]
Geometric Mean Potency (CHIKV nsP1; first set of rows): 4.642 | Geometric Mean Potency (CHIKV nsP1; second set of rows): 4.657 | Average POC [1]: 74.6508 | Percent of Control ([1]; 100 µM): 92.365 | Percent of Control ([1]; listed as ITP2, 100 µM): 66.4533 | Percent of Control ([1]; listed as ITP3, 100 µM): 65.1342 | affinity for nsP1 GTP binding site / ability to compete with GTP-Bodipy (in words) [2]: moderate decrease in affinity | Ki [2]: 1.91 µM

Nc1nc2c(ncn2[C@@H]2O[C@H](COP(=O)(O)O)[C@@H](O)[C@H]2O)c(=O)[nH]1 [GMP]
Geometric Mean Potency (CHIKV nsP1; first set of rows): 3.81 | Geometric Mean Potency (CHIKV nsP1; second set of rows): 3.81 | ability to inhibit nsP1 guanylation (in words) [1]: least ability to inhibit guanylation | Average POC [1]: 99.8208 | Percent of Control ([1]; 100 µM): 96.3413 | Percent of Control ([1]; listed as GMP2, 100 µM): 112.788 | Percent of Control ([1]; listed as GMP3, 100 µM): 90.3332 | affinity for nsP1 GTP binding site / ability to compete with GTP-Bodipy (in words) [2]: decrease of GMP affinity was quite large | Ki [2]: 133 µM

O=c1[nH]c(=O)c2ncn([C@@H]3O[C@H](COP(=O)(O)OP(=O)(O)OP(=O)(O)O)[C@@H](O)[C@H]3O)c2[nH]1 [XTP]
Geometric Mean Potency (CHIKV nsP1; first set of rows): 5.251 | Geometric Mean Potency (CHIKV nsP1; second set of rows): 5.346 | ability to inhibit nsP1 guanylation (in words) [1]: greatest ability to in inhibit nsP1 guanylation activity | Average POC [1]: 32.3662 | Percent of Control ([1]; 100 µM): 34.0129 | Percent of Control ([1]; listed as XTP2, 100 µM): 27.443 | Percent of Control ([1]; listed as XTP3, 100 µM): 35.6426 | affinity for nsP1 GTP binding site / ability to compete with GTP-Bodipy (in words) [2]: slightly higher affinity compared to GTP | Ki [2]: 0.402 µM

O=c1ccn([C@@H]2O[C@H](COP(=O)(O)OP(=O)(O)OP(=O)(O)O)[C@@H](O)[C@H]2O)c(=O)[nH]1 [UTP]
Geometric Mean Potency (CHIKV nsP1; first set of rows): 4.3046 | Geometric Mean Potency (CHIKV nsP1; second set of rows): 4.272 | Average POC [1]: 59.4237 | Percent of Control ([1]; 100 µM): 68.643 | Percent of Control ([1]; listed as UTP2, 100 µM): 52.4244 | Percent of Control ([1]; listed as UTP3, 100 µM): 57.2037 | affinity for nsP1 GTP binding site / ability to compete with GTP-Bodipy (in words) [2]: markedly decreased ability to outcompete GTP-Bodipy | Ki [2]: 4.46 µM

Nc1nc2c(ncn2[C@@H]2O[C@H](CO)[C@@H](O)[C@H]2O)c(=O)[nH]1 [Guanosine]
ability to inhibit nsP1 guanylation (in words) [1]: least ability to inhibit guanylation | Average POC [1]: 109.076 | Percent of Control ([1]; 100 µM): 100.679 | Percent of Control ([1]; listed as Guanosine2, 100 µM): 132.685 | Percent of Control ([1]; listed as Guanosine3, 100 µM): 93.8632 | affinity for nsP1 GTP binding site / ability to compete with GTP-Bodipy (in words) [2]: not able to calculate a Ki

Nc1nc2c(ncn2[C@@H]2O[C@H](COP(=O)(O)OP(=O)(O)O)[C@@H](O)[C@H]2O)c(=O)[nH]1 [GDP]
Geometric Mean Potency (CHIKV nsP1; first set of rows): 4.329 | Geometric Mean Potency (CHIKV nsP1; second set of rows): 4.21 | Average POC [1]: 78.8606 | Percent of Control ([1]; 100 µM): 63.0295 | Percent of Control ([1]; listed as GDP2, 100 µM): 85.6756 | Percent of Control ([1]; listed as GDP3, 100 µM): 87.8767 | affinity for nsP1 GTP binding site / ability to compete with GTP-Bodipy (in words) [2]: slight decrease in affinity | Ki [2]: 4.89 µM
